Reference: patent publication US20130059783A1, “COMPOSITIONS AND METHODS FOR EXPANDING BFU-E CELLS” (priority 2010, published 2013)

System: mRNA expression in BFU-E cells
Assay: mRNA-Seq of BFU-E cells cultured 4 hours with or without Dex (Table S3)
Assay type: cell-based, mouse
Conditions: for Expression level log2((100 nM DEX)* (0 nM DEX)) / Expression of mRNA in BFU-E after 4 h 100 nM DEX (RPKM) / Expression change log2 ((100 nM DEX)/(0 nM DEX)) / Expression change log2 ((100 nM DEX)/(0 nM DEX))2: BFU-E, 4 h; for Expression change log2 ((100 nM DEX)/(0 nM DEX)): 100 nM vs 0 nM DEX
From the text: FIGS. 2A-2B. The effect of glucocorticoids on miRNA and mRNA expression in BFU-E cells determined by next generation sequencing. […] Both mRNAs and miRNAs were subjected to Illumina deep sequencing. […] (B) A plot similar to that in A for expression of individual mRNAs. mRNA expression was normalized using the RPKM method, which determines the relative expression of each gene to all expressed genes by giving each gene an RPKM count (number of uniquely aligning reads per kb exon per million total reads). […]
To minimize the risk of false positive GC target genes we chose to compare only highly expressed genes (≈10,000 genes with a multiplied RPKM count >4) (Mortazavi et al., 2008).
Samples for Paired-End mRNA-Seq were prepared using the Solexa kit according to the manufacturer's instructions with the exception that we extracted 300 bp bands, before and after the PCR step (Illumina). Images acquired from the Solexa sequencer were processed through the bundled Solexa image extraction pipeline version 1.4. mRNA-Seq reads were aligned to mouse NCBI build 37 (mm9) using ELAND, Briefly, the first 32 bases of a read were used as a seed. Each matched seed was then extended up to 36 bases and scored to break any ties between multi-matches. For mRNA expression counts, unique reads in the genome that landed within any exons of NCBI gene models (v37.1) were counted. The counts were normalized by the mRNA length to get the final RPKM values (i.e. reads per KB per million reads).

[1] = BFU-E cells, 4 hours, 100 nM Dex
[2] = gene 38413 (membrane-associated ring finger (C3HC4) 3)

Compound: C[C@@H]1C[C@H]2[C@@H]3CCC4=CC(=O)C=C[C@]4(C)[C@@]3(F)[C@@H](O)C[C@]2(C)[C@@]1(O)C(=O)CO [Dex, dexamethasone]
- Upregulation of Ddit4 (BFU-E cells, 4 hours): > 8 fold
- Genes differentially expressed (more than a factor of 2) [1]: 195 genes
- Genes down regulated (more than a factor of 2) [1]: 112 genes
- Genes up regulated (more than a factor of 2) [1]: 83 genes
- Expression level log2((100 nM DEX)* (0 nM DEX)) [2]: 4.94
- Expression of mRNA in BFU-E after 4 h 100 nM DEX (RPKM) [2]: 8.25 RPKM
- Expression of mRNA in BFU-E after 4 h 100 nM DEX (RPKM) (gene 0610040J01Rik): 14.77 RPKM
- Expression change log2 ((100 nM DEX)/(0 nM DEX)) (gene 0610040J01Rik): 2.84
- Expression of mRNA in BFU-E after 4 h 100 nM DEX (RPKM) (gene Acp5): 20.40 RPKM
- Expression change log2 ((100 nM DEX)/(0 nM DEX)) (gene Acp5): 2.70
- Expression of mRNA in BFU-E after 4 h 100 nM DEX (RPKM) (gene Ampd3): 15.71 RPKM
- Expression of mRNA in BFU-E after 4 h 100 nM DEX (RPKM) (gene Ank): 48.60 RPKM
- Expression change log2 ((100 nM DEX)/(0 nM DEX)) (gene Ank): 2.06
- Expression change log2 ((100 nM DEX)/(0 nM DEX))2 (gene Aqp3): 1.34
- Expression of mRNA in BFU-E after 4 h 100 nM DEX (RPKM) (gene Aqp3): 6.98 RPKM
- Expression of mRNA in BFU-E after 4 h 100 nM DEX (RPKM) (gene Arhgef3): 16.21 RPKM
- Expression change log2 ((100 nM DEX)/(0 nM DEX)) (gene Arhgef3): 2.88
- Expression level log2((100 nM DEX)* (0 nM DEX)) (gene Atp2b4): 9.79
- Expression of mRNA in BFU-E after 4 h 100 nM DEX (RPKM) (gene Atp2b4): 43.89 RPKM
- Expression of mRNA in BFU-E after 4 h 100 nM DEX (RPKM) (gene Bcl2): 6.45 RPKM
- Expression change log2 ((100 nM DEX)/(0 nM DEX)) (gene Bcl2): 1.69
- Expression of mRNA in BFU-E after 4 h 100 nM DEX (RPKM) (gene Cables1): 4.90 RPKM
- Expression change log2 ((100 nM DEX)/(0 nM DEX))2 (gene Ccnd1): 1.34
- Expression level log2((100 nM DEX)* (0 nM DEX)) (gene Ccnd1): 3.76
- Expression of mRNA in BFU-E after 4 h 100 nM DEX (RPKM) (gene Ccnd1): 5.86 RPKM
- Expression level log2((100 nM DEX)* (0 nM DEX)) (gene Cd59a): 2.18
- Expression of mRNA in BFU-E after 4 h 100 nM DEX (RPKM) (gene Cd59a): 3.15 RPKM
- Expression of mRNA in BFU-E after 4 h 100 nM DEX (RPKM) (gene Clca1): 7.54 RPKM
- Expression change log2 ((100 nM DEX)/(0 nM DEX)) (gene Clca1): 2.07
- Expression level log2((100 nM DEX)* (0 nM DEX)) (gene Clcn2): 5.04
- Expression of mRNA in BFU-E after 4 h 100 nM DEX (RPKM) (gene Clcn2): 8.78 RPKM
- Expression level log2((100 nM DEX)* (0 nM DEX)) (gene Clint1): 15.15
- Expression of mRNA in BFU-E after 4 h 100 nM DEX (RPKM) (gene Clint1): 285.78 RPKM
- Expression of mRNA in BFU-E after 4 h 100 nM DEX (RPKM) (gene Clstn1): 70.51 RPKM
- Expression change log2 ((100 nM DEX)/(0 nM DEX)) (gene Clstn1): 1.72
- Expression level log2((100 nM DEX)* (0 nM DEX)) (gene Cyth3): 11.35
- Expression of mRNA in BFU-E after 4 h 100 nM DEX (RPKM) (gene Cyth3): 75.31 RPKM
- Expression of mRNA in BFU-E after 4 h 100 nM DEX (RPKM) (gene Ddit4): 20.23 RPKM
- Expression change log2 ((100 nM DEX)/(0 nM DEX)) (gene Ddit4): 3.08
- Expression level log2((100 nM DEX)* (0 nM DEX)) (gene E430018J23Rik): 2.10
- Expression of mRNA in BFU-E after 4 h 100 nM DEX (RPKM) (gene E430018J23Rik): 3.02 RPKM
- Expression of mRNA in BFU-E after 4 h 100 nM DEX (RPKM) (gene Egln3): 16.47 RPKM
- Expression change log2 ((100 nM DEX)/(0 nM DEX)) (gene Egln3): 3.00
- Expression of mRNA in BFU-E after 4 h 100 nM DEX (RPKM) (gene Egr1): 18.06 RPKM
- Expression of mRNA in BFU-E after 4 h 100 nM DEX (RPKM) (gene Fam46a): 6.44 RPKM
- Expression change log2 ((100 nM DEX)/(0 nM DEX)) (gene Fam46a): 1.68
- Expression of mRNA in BFU-E after 4 h 100 nM DEX (RPKM) (gene Fam46c): 13.90 RPKM
- Expression level log2((100 nM DEX)* (0 nM DEX)) (gene Fam55c): 5.91
- Expression of mRNA in BFU-E after 4 h 100 nM DEX (RPKM) (gene Fam55c): 11.20 RPKM
- Expression of mRNA in BFU-E after 4 h 100 nM DEX (RPKM) (gene Fam83g): 8.67 RPKM
- Expression level log2((100 nM DEX)* (0 nM DEX)) (gene Fes): 2.34
- Expression of mRNA in BFU-E after 4 h 100 nM DEX (RPKM) (gene Fes): 3.48 RPKM
- Expression of mRNA in BFU-E after 4 h 100 nM DEX (RPKM) (gene Fkbp5): 74.76 RPKM
- Expression change log2 ((100 nM DEX)/(0 nM DEX)) (gene Fkbp5): 1.71
- Expression level log2((100 nM DEX)* (0 nM DEX)) (gene Fkbp11): 9.88
- Expression of mRNA in BFU-E after 4 h 100 nM DEX (RPKM) (gene Fkbp11): 44.44 RPKM
- Expression of mRNA in BFU-E after 4 h 100 nM DEX (RPKM) (gene Frmd4a): 28.77 RPKM
- Expression change log2 ((100 nM DEX)/(0 nM DEX)) (gene Frmd4a): 2.03
- Expression level log2((100 nM DEX)* (0 nM DEX)) (gene Glul): 12.54
- Expression of mRNA in BFU-E after 4 h 100 nM DEX (RPKM) (gene Glul): 110.54 RPKM
- Expression change log2 ((100 nM DEX)/(0 nM DEX))2 (gene Gm129): 1.01
- Expression level log2((100 nM DEX)* (0 nM DEX)) (gene Gm129): 2.29
- Expression of mRNA in BFU-E after 4 h 100 nM DEX (RPKM) (gene Gm129): 3.14 RPKM
- Expression of mRNA in BFU-E after 4 h 100 nM DEX (RPKM) (gene Gna14): 3.37 RPKM
- Expression level log2((100 nM DEX)* (0 nM DEX)) (gene Gng13): 3.81
- Expression of mRNA in BFU-E after 4 h 100 nM DEX (RPKM) (gene Gng13): 5.76 RPKM
- Expression of mRNA in BFU-E after 4 h 100 nM DEX (RPKM) (gene Gsta4): 9.00 RPKM
- Expression change log2 ((100 nM DEX)/(0 nM DEX)) (gene Gsta4): 2.60
- Expression of mRNA in BFU-E after 4 h 100 nM DEX (RPKM) (gene Hif3a): 101.46 RPKM
- Expression change log2 ((100 nM DEX)/(0 nM DEX)) (gene Hif3a): 1.38
- Expression of mRNA in BFU-E after 4 h 100 nM DEX (RPKM) (gene Hopx): 13.32 RPKM
- Expression change log2 ((100 nM DEX)/(0 nM DEX)) (gene Hopx): 1.82
- Expression of mRNA in BFU-E after 4 h 100 nM DEX (RPKM) (gene Hp): 4.41 RPKM
- Expression change log2 ((100 nM DEX)/(0 nM DEX))2 (gene Ier2): 1.05
- Expression level log2((100 nM DEX)* (0 nM DEX)) (gene Ier2): 10.07
- Expression of mRNA in BFU-E after 4 h 100 nM DEX (RPKM) (gene Ier2): 47.27 RPKM
- Expression level log2((100 nM DEX)* (0 nM DEX)) (gene Ier3): 3.80
- Expression of mRNA in BFU-E after 4 h 100 nM DEX (RPKM) (gene Itgb3): 7.39 RPKM
- Expression change log2 ((100 nM DEX)/(0 nM DEX)) (gene Itgb3): 2.37
